Experimental data taken from patent US9839644B2, “Formulations and methods for treatment of metabolic syndrome” (ARKAY Therapeutics, LLC, priority 2014, dated 2017).
“Also recorded” adds a separate entry of the source.

What was measured:
C57BL/6J mice = conditions: mouse, in vivo; cited from earlier work
[1] = clinical study; cited from earlier work
obese patients with T2DM = conditions: translational preclinical models and obese patients with T2DM; cited from earlier work
pancreatic beta cells = conditions: cited from earlier work
[2] = system: male Sprague Dawley rats fed with High fructose diet or High fat diet (HFD); conditions: rat, in vivo; cited from earlier work
C57BL/6J obese mice [3] = conditions: cited from earlier work
C57BL/6J obese mice [4] = conditions: cited from earlier work; remark: listed apart in the source
[5] = system: C57BL/6J diet-induced obese (DIO) mice; conditions: cited from earlier work
prediabetes patients = conditions: cited from earlier work
[6] = system: subjects with impaired glucose metabolism; conditions: 26 weeks; cited from earlier work
C57BL/6J DIO mice = conditions: Metformin alone (150 mg/Kg/day), 29-day study
Excerpt: Age and weight-matched C57BL/6J lean and DIO male mice were obtained from Jackson Labs (Bar Harbor, Me.). C57BL/6J DIO mice were fed high-fat diet (HFD) for 16 weeks to induce hepatic insulin resistance and pancreatic beta cell dysfunction. […] Lean control mice were maintained on D12450B (10% Kcal fat) Chow diet and DIO animals were maintained D12492 (60% KCal fat) research diets. Tap water was available ad libitum during the study. Animals were acclimated for a week. […] Test articles or the drugs were reconstituted in DMSO and 0.5% Methyl cellulose was used as the vehicle.
In a 29-day study, sub-maximal dose of Metformin (150 mg/Kg/day) and sub-maximal doses of Celecoxib (10 mg/Kg/day or 20 mg/Kg/day) were administered together or the vehicle was administered as an oral gavage in the morning and a sub-hypertensive dose of Valsartan (2 mg/Kg/day) or the vehicle was administered 6 hours later. Non-fasting BG measurements will be taken on Days 1, 15, 22, and 29. Animals were transferred to clean cages, food and water were uninterrupted. A blood sample was collected via tail nick and blood glucose was assessed using a hand-held Glucometer. Body weights were determined twice weekly for the duration of the study period.

[7] = system: C57BL/6J diet-induced obese (DIO) mice; conditions: cited from earlier work; remark: listed apart in the source

COc1ccc2c(c1)c(CC(=O)O)c(C)n2C(=O)c1ccc(Cl)cc1 [Indomethacin]
HFD-induced obesity and insulin resistance (C57BL/6J mice): prevented

O=C(Oc1ccccc1C(=O)O)c1ccccc1O [Salsalate]
reduction of glycosylated hemoglobin A1c, average [1]: 0.37% | systemic insulin sensitivity (obese patients with T2DM): restore

CS(=O)(=O)Nc1ccc([N+](=O)[O-])cc1OC1CCCCC1 [NS-398]
beta cell dysfunction (pancreatic beta cells): reverses

CS(=O)(=O)Nc1ccc([N+](=O)[O-])cc1Oc1ccccc1 [Mesulid]
insulin sensitivity [2]: restore | low-grade inflammation [2]: reverse | oxidative stress [2]: reduce

NS(=O)(=O)c1ccc(-n2nc(C(F)(F)F)cc2-c2ccc(Cl)cc2)cc1 [SC58236]
HbA1c levels (C57BL/6J obese mice [3]; C57BL/6J obese mice): reduces | reduction of HbA1c levels (C57BL/6J obese mice [3]; selective Cox-2 inhibition): about 0.4% | glucose tolerance (IPGTT) (C57BL/6J obese mice [4]; 6 hour fast, glucose 2 g/Kg): improves | plasma insulin levels (C57BL/6J obese mice [4]; after glucose injection): elevates

CCCCC(=O)N(Cc1ccc(-c2ccccc2-c2nnn[nH]2)cc1)[C@H](C(=O)O)C(C)C [Valsartan]
systolic blood pressure ([5]; 1 mg/Kg/day, C57BL/6J obese mice): no effect | glucose tolerance ([5]; overnight fast, IP 2 g/Kg glucose): improves | impaired glucose tolerance ([5]; sub-hypertensive dose 1 mg/Kg/day, C57BL/6J obese mice): improves | onset of Type II diabetes (prediabetes patients): delay the onset | beta cells function and insulin sensitivity [6]: improved

CN(C)C(=N)N=C(N)N [Metformin]
elevated non-fasting BG levels (C57BL/6J DIO mice): actually enhanced; also recorded: did not suppress | glucose tolerance (OGTT) ([7]; 2 g/Kg glucose after 20 hour fast, 0.25% and 0.5% Metformin = 150 and 300 mg/Kg/day): improves | HFD-induced insulin resistance ([7]; C57BL/6J DIO model): ameliorates
